Experimental findings from patent US20130316985A1, “GPR35 Ligands And Uses Thereof” (CORNING INCORPORATED, priority 2012, published 2013) are described below.

“Also recorded” adds a separate entry of the source. Like-named read-outs stand apart in the source and are kept apart here.

Experiment [1] deals with T1, GPR35 (Homo sapiens, UniProt Q9HC97). Kind of experiment: Tango β-arrestin translocation gene reporter assay in U2OS-GPR35-bla cells. The experiment is classed as cell-based. Also on record: TEV protease site (C); Gal4-VP16 transcription factor (C). To be noted: for EC50: read-out: Potency EC50, Tango; for β-arrestin translocation (Tango) signal (in words): 2,3-DNP up to 1 mM, 3,4-DNP at 1 mM. (In general: Reporter assays use an easily measured gene product as a stand-in for the process of interest.)
T1 sequence (Q9HC97 whole entry, the tested form may be a part): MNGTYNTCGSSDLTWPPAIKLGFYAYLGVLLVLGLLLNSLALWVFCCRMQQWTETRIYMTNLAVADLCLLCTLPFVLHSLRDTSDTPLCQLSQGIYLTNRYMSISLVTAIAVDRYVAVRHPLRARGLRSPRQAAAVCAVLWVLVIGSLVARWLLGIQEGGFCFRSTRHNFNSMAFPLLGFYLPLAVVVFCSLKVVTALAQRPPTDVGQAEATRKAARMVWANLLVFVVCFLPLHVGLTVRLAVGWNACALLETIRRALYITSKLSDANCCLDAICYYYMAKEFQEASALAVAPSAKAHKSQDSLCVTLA

For experiment [2], the target named is T1, GPR35. Kind of experiment: DMR agonism assay in native HT-29 cells (Epic optical biosensor). To be noted: for DMR signal in HT-29 cells (in words): agonism mode.
Experiment [3] concerns the target T1, GPR35.
For experiment [4], the target named is T1, GPR35. Particulars: U2OS-GPR35-bla.
Source text: Tango™ GPR35-bla U2OS cells was used. This cell line stably expresses two fusion proteins: human GPR35 linked to a TEV protease site and a Gal4-VP16 transcription factor, and 13-arrestin/TEV protease fusion protein. The cell line also stably expresses the β-lactamase reporter gene under the control of a UAS response element. The activation of GPR35 by agonists leads to the recruitment of 13-arrestin/TEV protease fusion proteins to the activated GPR35. As a result, the protease cleaves the Gal4-VP16 transcription factor from the receptor, which then translocates to the nucleus and activates the expression of beta-lactamase. […] After overnight culture, the cells were stimulated with ligands for 5 hrs in a humidified 37° C./5% CO2, and then loaded with the cell permeable LiveBLAzer™ FRET B/G substrate. After the two hour incubation the coumarin:fluorescein ratio was measured using Tecan Safire II microplate reader (Männedorf, Switzerland). In the absence of beta-lactamase expression (i.e., no GPR35 activation), cells generate green fluorescence. In the presence of beta-lactamase expression upon receptor activation, the substrate is cleaved and the cells generate blue fluorescence. The coumarin:fluorescein ratio was used as a normalized reporter response.
The U2OS-GPR35-bla cells were pretreated with ML145 for 10 min, followed by stimulation with GPR35 agonists at a fixed concentration (indicated in the legend of FIG. 5). The data represents mean±s.d. from two independent measurements, each in duplicate (n=2).
Experiment [5] addresses T1, GPR35. The experiment is described as follows: cell-based.
Experiment [6] has as its target T1, GPR35. The source holds these as a separate data set.
The mark [7] stands for this setting: U2OS-GPR35-bla cells, β-arrestin translocation, mean ± s.d.
Where [8] appears, read: HT-29, ML-145 at different doses 10 min before agonist at fixed dose.
The mark [9] stands for this setting: U2OS-GPR35-bla, zaprinast maximal response in same plate = 100%, read-out: efficacy (Tango, normalized to maximal response of zaprinast).
Setting [10] is: maximal response normalized to the zaprinast maximal response, read-out: Efficacy Tango.
[11] abbreviates: maximal response normalized to the zaprinast maximal response.
Where [12] appears, read: maximal DMR response in HT-29 (2,5-DNP: amplitude at 50 min).

For orientation: EC50 means the concentration needed to bring the measured effect to its halfway point. Regarding `O=C(O)c1cc(/N=N/c2ccc(O)c(C(=O)O)c2)ccc1O` (single isomer, unassigned) [olsalazine], the EC50 is 1.26 µM in experiment [1] (setting [7]) and 0.0218 µM in experiment [2]. The “agonist type compared to zaprinast, based on maximal responses in Tango assays” value (from here on “agonist type compared to zaprinast”) in experiment [1] (U2OS-GPR35-bla, listed as olasalazine) was “full agonists”.

Regarding `O=[N+]([O-])c1ccc(O)c([N+](=O)[O-])c1` [2,4-DNP, 2,4-dinitrophenol], the “inhibition of the agonist-induced DMR by ML-145 (in words)” value (“inhibition of the agonist-induced DMR” for short) in experiment [3] is “partial inhibition; also recorded: partially inhibited”. For the same compound, the Emax is 28 ± 1% in experiment [1] (read-out: Efficacy Tango) and 28% in experiment [1] (read-out: efficacy (Tango, normalized to maximal response of zaprinast)). For the same compound, the EC50 in experiment [1] was 272 µM. In addition, the “Efficacy DMR” value in experiment [2] is listed as 249 ± 17 pm.

With `O=[N+]([O-])c1cc(O)c(O)c([N+](=O)[O-])c1` [3,5-dinitrocatechol], in experiment [1], the EC50 is 123 µM.

With `COc1cccc(O)c1O` [3-methoxycatechol], the “block of the agonist-induced Tango signal by ML-145 (in words)” value (“block” below) in experiment [4] was “can be blocked by ML-15”. The “inhibition of the agonist-induced DMR” value in experiment [3] (setting [8]) is reported as “can be blocked by ML-145”. In experiment [1] (U2OS-GPR35-bla), the “β-arrestin translocation (Tango) signal (in words)” value (“β-arrestin translocation” for short) was “trigger Tango signal”. Moreover, the “DMR signal in HT-29 cells (in words)” value in experiment [2] is reported as “active”.

Consider `O=C(O)c1cc(/N=N/c2ccc(O)c(C(=O)O)c2)ccc1O` [Bi-ASA, (E)-(5,5-diazene-1,2-diyl)bis(2-hydroxybenzoic acid)], for which the “agonist type compared to zaprinast” value in experiment [1] (U2OS-GPR35-bla) is given as “strong partial agonist”. Further, the EC50 in experiment [1] (setting [7]) amounted to 1.7 µM; in experiment [2] it was 0.00209 µM.

On to `Nc1ccc(O)c(C(=O)O)c1` [Compound 5-ASA, 5-aminosalicylic acid], for which the “agonist type compared to zaprinast” value in experiment [1] (U2OS-GPR35-bla) is “weak partial agonist”. In addition, the EC50 turned out to be 545 µM in experiment [1] (setting [7]) and 14.7 µM in experiment [5].

As for `CCN(CC)C(=O)/C(C#N)=C/c1cc(O)c(O)c([N+](=O)[O-])c1` [Entacapone], the Emax was 6% in experiment [1] (setting [9]) and 6 ± 1% in experiment [1] (setting [10]).

`O=C(c1cc(O)c(O)c([N+](=O)[O-])c1)c1ccccc1F` [Ro41-0960]: the figures for the EC50 in experiment [6] and in experiment [1] (setting [7]) were 8.66 µM and 54.4 µM, respectively. Further, the “inhibition of the agonist-induced DMR” value in experiment [3] (setting [8]) is listed as “partially inhibited”. Moreover, in experiment [1] (U2OS-GPR35-bla, zaprinast maximal response in same plate = 100%), the “efficacy (Tango, normalized to maximal response of zaprinast)” value came out at 13%. In addition, in experiment [1] (setting [11]), the “Efficacy Tango” value is 13 ± 1 % zaprinast. Moreover, the “Efficacy DMR” value in experiment [2] (setting [12]) came to 257 ± 16 pm.

Take `Cc1ccc(C(=O)c2cc(O)c(O)c([N+](=O)[O-])c2)cc1` [Tolcapone, 3,4-dihydroxy-4′-methyl-5-nitrobenzophenone]: the EC50 was 7.44 µM in experiment [6] and 49.2 µM in experiment [1] (setting [7]). Also, the “inhibition of the agonist-induced DMR” value in experiment [3] (setting [8]) was “partially inhibited”; in experiment [3] (HT-29, ML-145 at different doses 10 min before agonist at fixed dose, listed as tolcapone), “partial inhibition”. Besides, the Emax worked out at 25% in experiment [1] (setting [9]) and 25 ± 2% in experiment [1] (setting [10]). In experiment [2], the “DMR signal in HT-29 cells (in words)” value was “positive DMR with an early peak followed by a small decay to another elevated plateau”. For the same compound, in experiment [2] (setting [12]), the “Efficacy DMR” value was 400 ± 33 pm.

In the case of `CCCOc1ccccc1-c1nc(=O)c2[nH]nnc2[nH]1` [Zaprinast], in experiment [1] (setting [9]), the Emax is 100%. Further, the “Efficacy Tango” value in experiment [1] (setting [11]) is recorded as 100 ± 9 % zaprinast. Also, in experiment [2] (setting [12]), the “Efficacy DMR” value came to 254 ± 14 pm.

Take `O=C(O)CCNC(=O)c1ccc(/N=N/c2ccc(O)c(C(=O)O)c2)cc1` [balsalazide]: the “agonist type compared to zaprinast” value in experiment [1] (U2OS-GPR35-bla) is “full agonists”. In addition, the values for the EC50 in experiment [1] (setting [7]) and in experiment [5] were 46.2 µM and 2.59 µM, respectively.

`CCCCCCCCOC(=O)c1cc(O)c(O)c(O)c1` [octyl gallate]: the “block” value in experiment [4] was “can be blocked by ML-15”. Also, the “inhibition of the agonist-induced DMR” value in experiment [3] (setting [8]) was “can be blocked by ML-145”. Further, the “β-arrestin translocation” value in experiment [1] (U2OS-GPR35-bla) is on record as “trigger Tango signal”. Moreover, in experiment [2], the “DMR signal in HT-29 cells (in words)” value is “active”.

With `CCCOC(=O)c1cc(O)c(O)c(O)c1` [propyl gallate], the “block” value in experiment [4] is “can be blocked by ML-15”. Besides, the “inhibition of the agonist-induced DMR” value in experiment [3] (setting [8]) is recorded as “can be blocked by ML-145”. Further, the “β-arrestin translocation” value in experiment [1] (U2OS-GPR35-bla) is given as “trigger Tango signal”. Further, the “DMR signal in HT-29 cells (in words)” value in experiment [2] is reported as “active”.

Regarding `Oc1cccc(O)c1O` [pyrogallol], in experiment [4], the “block” value is reported as “can be blocked by ML-15”. The “inhibition of the agonist-induced DMR” value in experiment [3] (setting [8]) is “can be blocked by ML-145”. Also, the “β-arrestin translocation” value in experiment [1] (U2OS-GPR35-bla) is given as “trigger Tango signal”. The “DMR signal in HT-29 cells (in words)” value in experiment [2] is “active”.

As for `O=C(O)c1cc(/N=N/c2ccc(S(=O)(=O)Nc3ccccn3)cc2)ccc1O` [sulfasalazine], in experiment [1] (U2OS-GPR35-bla), the “agonist type compared to zaprinast” value is given as “partial agonist”. Also, the figures for the concentration for a half-maximal effect (EC50) in experiment [1] (setting [7]) and in experiment [5] were 31.3 µM and 2.99 µM, respectively.
